# Laboratory results from patent publication US12390435B2, “Electrophiles and electrophile pro-drugs as RAD51 inhibitors” (University of Pittsburgh—Of the Commonwealth System of …, priority 2018, dated 2025).
# Key:
# IKKβ = test: TNFα-induced IKKβ phosphorylation, IκBα phosphorylation and degradation; type: cell-based
# Experimental: All studies used two TNBC cell lines, MDA-MB-231 and MDA-MB-468. […] For IκBα degradation, cells were treated as described above and stimulated with 20 ng/mL TNFα for 10 min.
# (§1) Western blotting was performed. 20-60 μg of total lysates per lane were loaded on 7%, 10%, or 12% SDS-PAGE and transferred onto nitrocellulose or polyvinylidene difluoride membranes (Bio-Rad). The membranes were probed with primary antibodies against caspase-3, multi-drug resistance protein-1 (MRP1), poly [ADP ribose] polymerase-1 (PARP-1), ubiquitin, RelA; cyclin D1, p21, caspase-9, MRP4, IKKβ, pIKKβ, IκBα, or pIκBα (Cell Signaling); caspase-8 (R&D Systems). Samples were normalized to β-actin (Sigma-Aldrich) or GAPDH (Trevigen).
# [1] = test system: single strand annealing (SSA); test: GFP reporter assay for single strand annealing; type: cell-based; settings: 5 μM, 48 h
# Experimental: FIG. 13B is GFP-reporter assays examining effects of OA-NO2 on different DNA DSB repair pathways described in FIG. 14A. U2OS cells containing the GFP-reporter construct DR-GFP were transfected with an I-SceI plasmid and treated with vehicle (gray), 5 μM OA (green) or 5 μM OA-NO2 (red). The number of GFP positive cells were detected by flow cytometry at 48 h. GFP-reporter measuring NHEJ: n=3, SSA: n=3; HDR: n=3; Alt-EJ: n=1.
# (§2) Measurements of NHEJ, HR, Alt-EJ and SSA assays were performed as previously described. HR activity was measured by counting GFP-positive cells by flow cytometry at the MWRI flow cytometry core using a BD LSRII (BD Biosciences). RAD51 overexpressing cells were generated by stable transfection of pLVX RAD51 IRES Neo and selection with geneticin (Invitrogen).
# [2] = test system: homologous recombination (DR-GFP, U2OS cells); test: DR-GFP HR reporter assay in U2OS cells; type: cell-based
# Experimental: as §2
# U2OS cells were prepared as above, but 5 h following compound treatment, cells were transferred into the Incucyte Zoom (Essen) live-cell imaging automated fluorescence microscope at 37° C. with 5% CO2. Cell confluence and green object count per mm2 were determined using Incucyte Zoom software. Green object count per field was normalized to cell confluency to correct for NO2—OA-induced effects on cell proliferation.
# NO2-OA-dependent effects on HR DNA repair were further investigated by utilizing a DRGFP reporter assay. This analysis quantifies intracellular recombination of an integrated cDNA cassette of two tandem non-fluorescent GFP constructs following introduction of an I-SceI cleavage to the system by measuring the fluorescent GFP protein that is produced following successful recombination. […] A novel strategy was used to measure the kinetics of changes in HR in live cells by using automated fluorescence microscopy to track the emergence of GFP positive cells over time in monolayers, as opposed to making static measurements of detached cells using flow cytometry. […] This was indicated by an absence of changes in the number of GFP positive cells following I-SceI cleavage after 48 h by flow cytometric analysis or over 68 h by live-cell fluorescence microscopy (FIGS. 2C, 2D).
# RAD51 = test: Biotinylated nitro fatty acid affinity capture of RAD51; type: binding; settings: 293T cells expressing WT or mutant RAD51
# Experimental: HEK 293T were transiently transfected with Fugene 6 (Promega) and 5 μg RAD51 expressing vectors (wild-type, C312S, or C319S). […] Cells were prepared as above. […] Detection of RAD51 was accomplished by immunoblot with RAD51 antibody (1:2000) with actin antibody (1:3000) probed as loading control.
# RelA in MCF-10A cells = test: RelA protein level; type: cell-based; settings: 5 μM, 24 hr
# Experimental: as §1
# [3] = test system: MDA-MB-231 xenograft tumor; test: MDA-MB-231 xenograft tumor growth, 7.5 mg/kg/day oral gavage; type: in vivo, mice
# Experimental: MDA-MB-231 cells were injected into the fourth inguinal mammary fat pad of 6-week-old female athymic nude mice.
# [4] = test system: RAD51 foci in MDA-MB-231 cells; test: RAD51 foci and γH2AX immunofluorescence after 5 Gy IR; type: cell-based
# Experimental: To analyze RAD51 foci formation, 10,000 cells were plated to CultureWell 16-well chambered cover glass (MIDSCI) coated with poly-L-lysine (Sigma) and incubated overnight in 5% FBS media. […] Cells were fixed with 10% formalin for 20 min at 4° C. and immunostained with RAD51 (Santa Cruz) or γH2AX (EMD Biosciences) antibodies. Z-stack images were acquired using a Nikon AIR confocal microscope with 60× oil objective and acquisition performed using NIS elements software. Quantification of z-stacks and foci were completed using ImageJ software.
# Data represent the mean±SEM from 3 independent experiments unless otherwise noted. A p value<0.05 was considered statistically significant. Non-linear curves were generated in GraphPad Prism 7.0 (GraphPad Software, La Jolla, CA, USA) for statistical analysis. EC50 values and standard error were calculated from three independent experiments utilizing a non-linear dose response variable slope model. Significance was tested by one-way ANOVA for multiple groups with Tukey posttest or by t-test when groups were less than three. RAD51 foci number was analyzed with ImageJ. Nuclear boundaries were individually identified in more than 50 cells per treatment group in three independent experiments.
# [5] = test system: RelA in MDA-MB-231 and MDA-MB-468 cells; test: RelA protein level and polyubiquitination; type: cell-based
# Experimental: Lysates were clarified by centrifugation at 14,000×g for 10 min. Protein lysates (1 mg) were incubated with anti-RelA antibody and Protein G/A conjugated agarose beads (EMD Millipore, Bedford, MA) at 4° C., overnight. Immunoprecipitation fraction were obtained by centrifugation at 14,000×g for 1 min at RT and washed with lysis buffer three times. The immunoprecipitated RelA was resolved by 8% SDSPAGE gel, and transferred to nitrocellulose membrane (Bio-Rad) for immunoblotting probed with an anti-ubiquitin antibody (Santa Cruz Biotechnology). The blot was then stripped and probed with an anti-RelA antibody to assess amounts of RelA protein pull-down.
# as §1
smiles,measurement,setting,value
"CCCCCCCCC(=CCCCCCCCC(=O)O)[N+](=O)[O-] [NO2-OA, 10-nitro-octadec-9-enoic acid]",TNFα-induced IKKβ phosphorylation,"IKKβ; NO2-OA 5 μM or BAY11-7082 10 μM 2 hr, TNFα 20 ng/mL 5 min",diminished
same,degradation of IκBα following TNFα stimulation,"IKKβ; TNFα 20 ng/mL, 10 min",inhibited the degradation of IκBβ
same,IκBα phosphorylation,IKKβ; with proteasome inhibitor MG-132 10 μM,decreased IκBβ phosphorylation
same,effect on single strand annealing,[1],also inhibits single strand annealing
same,HR activity in RAD51 overexpressing versus control reporter cells,[2]; 5 μM NO2-OA,significantly increased
same,decrease in number of GFP-positive cells (HR),"[2]; daily 5 μM, over 68 h, live-cell microscopy",2 fold
same,decrease in number of GFP positive cells (HR),"[2]; daily NO2-OA, 48 h, flow cytometry, versus OA or vehicle",2 fold
same,"RAD51 cysteine targeted (Cys312Ser, Cys319Ser mutants)",RAD51,preferential reaction of NO2-OA with Cys319
same,RelA protein levels,RelA in MCF-10A cells,not altered
same,xenograft tumor growth,"[3]; 7.5 mg/kg/day oral gavage, 27 days post-treatment, versus vehicle and NO2-SA",significantly reduced tumor growth
same,body weight during treatment,"[3]; 7.5 mg/kg/day, 4 weeks",no weight loss
same,overt toxicity,"[3]; 7.5 mg/kg/day, 4 weeks",no overt toxic effects
same,tumor NO2-OA levels,[3]; oral administration,increased murine tumor NO2-OA levels
same,RAD51 foci formation,"[4]; 5 μM, 6 h",inhibited RAD51 foci formation
same,nuclear γH2AX localization,[4]; versus vehicle,significantly increased nuclear γH2AX localization
same,polyubiquitination of RelA,"[5]; 5 μM, 5 hr",promoted polyubiquitination of RelA
same,RelA protein abundance,"[5]; 5 μM, 24 hr",decreased the abundance of RelA
same,RelA mRNA levels,"[5]; all three cell lines (MDA-MB-231, MDA-MB-468, MCF-10A)",not altered
